Experimental data published in patent US6335372B1, “Treatment of obsessive compulsive disorder” (Orion Corporation, priority 2000, dated 2002).

Tested on: obsessive-compulsive symptoms
Experiment: Treatment of two patients having obsessive-compulsive symptoms with deramciclane
Assay type: in vivo
Conditions: one 15 mg tablet twice daily (30 mg/day), 8 week treatment period
Description: The efficacy of deramciclane in the treatment of OCD, is illustrated with two patients having obsessive-compulsive symptoms. These patients received one 15 mg tablet of deramciclane twice daily (=30 mg/day) for an eight-week active treatment period.

In the case of `CN(C)CCO[C@]1(c2ccccc2)C[C@H]2CC[C@]1(C)C2(C)C` [deramciclane, (1R,2S,4R)-(−)-2-phenyl 2-(dimethylaminoethoxy)-1,7,7-trimethyl-bicyclo[2.2.1]heptane], the “obsessive-compulsive symptoms as assessed by the responsible physician” value is reported as “reduced in a clinically significant way”.
